# Experimental data: BindingDB's records for doi:10.1021/jm0101702 (Abbott Laboratories, 2001)
# Experiment: Inhibition of VCAM-1 in human endothelial cells
row,Structure (SMILES),IC50 [nM]
1,"Cc1cc(Cl)ccc1Oc1cncc2sc(C(N)=O)cc12 [4-(4-Chloro-2-methyl-phenoxy)-thieno[2,3-c]pyridine-2-carboxylic acid amide]",> 1000
2,"CNC(=O)c1cc2c(Oc3ccc(-c4nnn[nH]4)cc3)cncc2s1 [4-[4-(1H-Tetrazol-5-yl)-phenoxy]-thieno[2,3-c]pyridine-2-carboxylic acid methylamide]",> 1000
3,"NC(=O)c1cc2c(Oc3ccc(COC4CCCCO4)cc3)cncc2s1 (configuration not stated) [4-[4-(Tetrahydro-pyran-2-yloxymethyl)-phenoxy]-thieno[2,3-c]pyridine-2-carboxylic acid amide]",> 1000
4,"CNC(=O)c1cc2c(Oc3ccc(C(=O)NCCN4CCOCC4)cc3)cncc2s1 [4-[4-(2-Morpholin-4-yl-ethylcarbamoyl)-phenoxy]-thieno[2,3-c]pyridine-2-carboxylic acid methylamide]",> 1000
5,"COCc1ccc(Oc2cncc3sc(C(N)=O)cc23)cc1 [4-(4-Methoxymethyl-phenoxy)-thieno[2,3-c]pyridine-2-carboxylic acid amide]",23
6,"CNC(=O)c1cc2c(Oc3ccc(-c4noc(C(F)(F)F)n4)cc3)cncc2s1 [4-[4-(5-Trifluoromethyl-[1,2,4]oxadiazol-3-yl)-phenoxy]-thieno[2,3-c]pyridine-2-carboxylic acid methylamide]",> 1000
7,"CCOCCOCCOCC(F)(F)c1ccc(Oc2cncc3sc(C(=O)NC)cc23)cc1 [4-(4-{2-[2-(2-Ethoxy-ethoxy)-ethoxy]-1,1-difluoro-ethyl}-phenoxy)-thieno[2,3-c]pyridine-2-carboxylic acid methylamide]",170
8,"CNC(=O)c1cc2c(Oc3ccc(C(=N)NO)cc3)cncc2s1 [4-[4-(N-Hydroxycarbamimidoyl)-phenoxy]-thieno[2,3-c]pyridine-2-carboxylic acid methylamide]",> 1000
9,"Cc1ccc(Oc2cncc3sc(C(N)=O)cc23)cc1 [4-p-Tolyloxy-thieno[2,3-c]pyridine-2-carboxylic acid amide]",11000
10,"CCOC(=O)c1cccc(Oc2cncc3sc(C(N)=O)cc23)c1 [3-(2-Carbamoyl-thieno[2,3-c]pyridin-4-yloxy)-benzoic acid ethyl ester]",> 1000
11,"CNC(=O)c1cc2c(Oc3ccc(-n4cncn4)cc3)cncc2s1 [4-(4-[1,2,4]Triazol-1-yl-phenoxy)-thieno[2,3-c]pyridine-2-carboxylic acid methylamide]",240
12,"NC(=O)c1cc2c(Oc3ccc(Cl)c(F)c3)cncc2s1 [4-(4-Chloro-3-fluoro-phenoxy)-thieno[2,3-c]pyridine-2-carboxylic acid amide]",> 1000
13,"NC(=O)c1cc2c(Oc3ccc(/C=C/C(=O)NCCN4CCOCC4)cc3)cncc2s1 [4-{4-[2-(2-Morpholin-4-yl-ethylcarbamoyl)-vinyl]-phenoxy}-thieno[2,3-c]pyridine-2-carboxylic acid amide]",> 1000
14,"NC(=O)c1cc2c(Oc3ccc(/C=C/C(=O)NCCN(CCO)CCO)cc3)cncc2s1 [4-[4-(2-{2-[Bis-(2-hydroxy-ethyl)-amino]-ethylcarbamoyl}-vinyl)-phenoxy]-thieno[2,3-c]pyridine-2-carboxylic acid amide]",> 1000
15,"NC(=O)c1cc2c(Oc3cccc(Br)c3)cncc2s1 [4-(3-Bromo-phenoxy)-thieno[2,3-c]pyridine-2-carboxylic acid amide]",> 1000
16,"NC(=O)c1cc2c(Oc3ccc(C(=O)NCCN4CCOCC4)cc3)cncc2s1 [4-[4-(2-Morpholin-4-yl-ethylcarbamoyl)-phenoxy]-thieno[2,3-c]pyridine-2-carboxylic acid amide]",> 1000

row,Structure (SMILES),IC50 [nM]
1,"CNC(=O)c1cc2c(Oc3ccc(-n4ccnc4)cc3)cncc2s1 [4-(4-Imidazol-1-yl-phenoxy)-thieno[2,3-c]pyridine-2-carboxylic acid methylamide]",19
2,"CNC(=O)c1cc2c(Oc3ccc(C=CC(=O)NCCc4cnc[nH]4)cc3)cncc2s1 [4-(4-{2-[2-(1H-Imidazol-4-yl)-ethylcarbamoyl]-vinyl}-phenoxy)-thieno[2,3-c]pyridine-2-carboxylic acid methylamide]",> 1000
3,"COCCOCc1ccc(Oc2cncc3sc(C(N)=O)cc23)cc1 [4-[4-(2-Methoxy-ethoxymethyl)-phenoxy]-thieno[2,3-c]pyridine-2-carboxylic acid amide]",> 1000
4,"NC(=O)c1cc2c(Oc3cccc(C(F)(F)F)c3)cncc2s1 [4-(3-Trifluoromethyl-phenoxy)-thieno[2,3-c]pyridine-2-carboxylic acid amide]",> 1000
5,"CNC(=O)c1cc2c(Oc3ccc(-c4cncn4C)cc3)cncc2s1 [4-[4-(3-Methyl-3H-imidazol-4-yl)-phenoxy]-thieno[2,3-c]pyridine-2-carboxylic acid methylamide]",> 180
6,"CCOC(=O)c1ccc(Oc2cncc3sc(C(N)=O)cc23)cc1 [4-(2-Carbamoyl-thieno[2,3-c]pyridin-4-yloxy)-benzoic acid ethyl ester]",> 1000
7,"NC(=O)c1cc2c(Oc3ccc(Cl)cc3Br)cncc2s1 [4-(2-Bromo-4-chloro-phenoxy)-thieno[2,3-c]pyridine-2-carboxylic acid amide]",330
8,"CNC(=O)c1cc2c(Oc3ccc(/C=C/C(=O)NCCN4CCOCC4)cc3)cncc2s1 [4-{4-[2-(2-Morpholin-4-yl-ethylcarbamoyl)-vinyl]-phenoxy}-thieno[2,3-c]pyridine-2-carboxylic acid methylamide]",> 1000
9,"CNC(=O)c1cc2c(Oc3ccc(/C=C/C(=O)NCCN(CCO)CCO)cc3)cncc2s1 [4-[4-(2-{2-[Bis-(2-hydroxy-ethyl)-amino]-ethylcarbamoyl}-vinyl)-phenoxy]-thieno[2,3-c]pyridine-2-carboxylic acid methylamide]",> 1000
10,"NC(=O)c1cc2c(Oc3ccc(/C=C/C(=O)NCC(O)CO)cc3)cncc2s1 (configuration not stated) [4-{4-[2-(2,3-Dihydroxy-propylcarbamoyl)-vinyl]-phenoxy}-thieno[2,3-c]pyridine-2-carboxylic acid amide]",> 1000
11,"NC(=O)c1cc2c(Oc3ccc(N)cc3)cncc2s1 [4-(4-Amino-phenoxy)-thieno[2,3-c]pyridine-2-carboxylic acid amide]",64
12,"CNC(=O)c1cc2c(Oc3ccc(-c4ccccc4)cc3)cncc2s1 [4-(Biphenyl-4-yloxy)-thieno[2,3-c]pyridine-2-carboxylic acid methylamide]",79
13,"NC(=O)c1cc2c(Oc3ccc(C(O)CO)cc3)cncc2s1 (configuration not stated) [4-[4-(1,2-Dihydroxy-ethyl)-phenoxy]-thieno[2,3-c]pyridine-2-carboxylic acid amide]",930
14,"CNC(=O)c1cc2c(Oc3ccc(/C=C/C(=O)NCC(O)CO)cc3)cncc2s1 (configuration not stated) [4-{4-[2-(2,3-Dihydroxy-propylcarbamoyl)-vinyl]-phenoxy}-thieno[2,3-c]pyridine-2-carboxylic acid methylamide]",> 1000
15,"CNC(=O)c1cc2c(Oc3ccc(COC)cc3)cncc2s1 [4-(4-Methoxymethyl-phenoxy)-thieno[2,3-c]pyridine-2-carboxylic acid methylamide]",> 24
16,"CNC(=O)c1cc2c(Oc3ccc(N4CCOCC4)cc3)cncc2s1 [4-(4-Morpholin-4-yl-phenoxy)-thieno[2,3-c]pyridine-2-carboxylic acid methylamide]",> 1000
